{
  "source": "patent US12611416B2",
  "about": "“Methods of treating ischemic stroke at risk for cerebral or cerebellar edema” (REMEDY PHARMACEUTICALS, INC., priority 2024, dated 2026)",
  "test_system": "large hemispheric infarction (LHI) patients at high risk for cerebral edema",
  "assay": "CHARM trial: intravenous glibenclamide in large hemispheric infarction, 90-day mRS shift analysis",
  "assay_type": "in vivo, human",
  "conditions": "for common odds ratio (cOR), 90-day mRS: versus placebo; for lesion volume at which cOR crosses the \"no effect\" point (cOR=1.0): 90-day mRS, mRS 5 and 6 combined",
  "text": "The CHARM trial evaluated the safety and efficacy of intravenous glibenclamide as a treatment for large hemispheric infarction (LHI) patients at high risk for cerebral edema.\nPatients meeting the following criteria were included: • A clinical diagnosis of acute ischemic stroke in the middle cerebral artery (MCA) territory. • A large hemispheric infarction defined as; lesion volume of 80 to 300 centimeters cubed (cm^3) on magnetic resonance imaging (MRI) diffusion-weighted imaging (DWI), or computed tomography perfusion (CTP), or an Alberta Stroke Program Early CT Score (ASPECTS) of 1 to 5 with involvement of at least 2 defined cortical regions. • Screening National Institutes of Health Stroke Scale (NIHSS) >=10. • At the time of randomization, and in the Investigator's judgement, it must be feasible for study drug treatment infusion to be initiated no later than 10 hours after time of symptom onset, if known, or the time last known normal. • Participants who wake with stroke may be included if neurological and other exclusion criteria are satisfied. The time of stroke onset is to be taken as the midpoint between sleep onset (or last known to be normal) and time of waking. • For participants who receive thrombectomy, inclusion into the study must be based on post-thrombectomy MRI-DWI.\nPatients meeting the following criteria were excluded: • Participant is likely to have supportive care withdrawn on the first day. • Commitment to decompressive craniectomy (DC) prior to enrollment. • Evidence of concurrent infarction in the contralateral hemisphere sufficiently serious so as to affect functional outcome. Pre-Specified Primary Endpoint • Modified Rankin Scale (mRS) score at 90 days analyzed as a shift analysis using a 5-category ordinal scale with 0/1 and 5/6 collapsed. The primary efficacy analysis was pre-specified to be conducted in participants 18-70 years of age (inclusive) who were randomized and receive study treatment (the modified intent-to-treat [mITT] population].\nFive hundred thirty-five subjects were enrolled, with 268 treated with placebo and 267 treated with intravenous glyburide. The mITT population (the primary analysis population), those participants aged […] years who received any study drug, consisted of 431 subjects.\nAn interaction term between treatment arm and stroke volume was included in an ordinal logistic regression model with 90-day mRS as the dependent variable. Independent variables included age, sex, baseline NIHSS, world region, tissue plasminogen activator, and thrombectomy.",
  "data": [
    {"smiles": "COc1ccc(Cl)cc1C(=O)NCCc1ccc(S(=O)(=O)NC(=O)NC2CCCCC2)cc1", "note": "[glibenclamide]", "values": [
      {"measurement": "common odds ratio (cOR), 90-day mRS", "setting": "mITT subjects given glyburide in combination with thrombectomy (n=81), 95% CI 1.10-20.1, p=0.037", "value": 4.69},
      {"measurement": "lesion volume at which cOR crosses the \"no effect\" point (cOR=1.0)", "setting": "mITT subjects with CTP or DWI baseline volume", "value": "about 140 cm^3"},
      {"measurement": "lesion volume at which cOR crosses the \"no effect\" point (cOR=1.0)", "setting": "mITT subjects with CTP or DWI baseline volume, listed as glyburide", "value": "approximately 140 cm^3"},
      {"measurement": "common odds ratio (cOR), 90-day mRS", "setting": "mITT subjects with CTP or DWI baseline volume, lesion volume less than 85 cm^3, ordinal logistic regression, mRS 0/1 and 5/6 collapsed", "value": "about 6"},
      {"measurement": "common odds ratio (cOR), 90-day mRS", "setting": "mITT, baseline stroke volume ≤120 cm^3 subgroup, 95% CI 1.07-5.01, p=0.034", "value": 2.31}
    ]}
  ]
}
